In patent US6596722B2, “Piperidine, tetrahydropyridine and piperazine derivatives, their preparation and use” (H. Lundbeck A/S, priority 1999, dated 2003):
Counter-ions that a name gives are not always drawn. Like-named read-outs stand apart in the source and are kept apart here.

Experiments:
[1] = biological target: T1, human 5-HT1A receptors (Homo sapiens, UniProt P08908); experiment: Inhibition of 3H-5-CT binding to human 5-HT1A receptors
T1 construct: expressed in transfected cells; host or cells: HeLa cells (HA7)
T1 sequence (P08908 1-422): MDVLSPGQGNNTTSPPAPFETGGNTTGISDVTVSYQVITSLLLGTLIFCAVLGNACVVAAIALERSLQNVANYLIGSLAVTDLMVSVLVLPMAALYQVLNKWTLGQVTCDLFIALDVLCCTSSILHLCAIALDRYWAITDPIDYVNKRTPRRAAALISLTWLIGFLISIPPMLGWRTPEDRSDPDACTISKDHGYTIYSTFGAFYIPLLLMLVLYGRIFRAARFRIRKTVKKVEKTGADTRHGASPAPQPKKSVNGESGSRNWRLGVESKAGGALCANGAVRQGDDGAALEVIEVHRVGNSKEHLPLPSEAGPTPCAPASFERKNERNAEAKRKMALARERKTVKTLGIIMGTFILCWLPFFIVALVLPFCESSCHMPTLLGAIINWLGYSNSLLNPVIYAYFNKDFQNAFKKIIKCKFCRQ
Description: Inhibition of ^3H-5-CT Binding to Human 5-HT1A Receptors.
Human 5-HT1A receptors (40 μg of cell homogenate) were incubated for 15 minutes at 37° C. in 50 mM Tris buffer at pH 7.7 in the presence of ^3H-5-CT. Non-specific binding was determined by including 10 μM of metergoline. The reaction was terminated by rapid filtration through Unifilter GF/B filters on a Tomtec Cell Harvester. Filters were counted in a Packard Top Counter.

[2] = biological target: T2, 3H-5-HT uptake into whole rat brain synaptosomes (serotonin reuptake) (Rattus norvegicus, UniProt P31652); experiment: Inhibition of 3H-5-HT uptake into rat brain synaptosomes; type: biochemical
T2 construct: from tissue; host or cells: whole rat brain synaptosomes
T2 sequence (P31652 whole entry): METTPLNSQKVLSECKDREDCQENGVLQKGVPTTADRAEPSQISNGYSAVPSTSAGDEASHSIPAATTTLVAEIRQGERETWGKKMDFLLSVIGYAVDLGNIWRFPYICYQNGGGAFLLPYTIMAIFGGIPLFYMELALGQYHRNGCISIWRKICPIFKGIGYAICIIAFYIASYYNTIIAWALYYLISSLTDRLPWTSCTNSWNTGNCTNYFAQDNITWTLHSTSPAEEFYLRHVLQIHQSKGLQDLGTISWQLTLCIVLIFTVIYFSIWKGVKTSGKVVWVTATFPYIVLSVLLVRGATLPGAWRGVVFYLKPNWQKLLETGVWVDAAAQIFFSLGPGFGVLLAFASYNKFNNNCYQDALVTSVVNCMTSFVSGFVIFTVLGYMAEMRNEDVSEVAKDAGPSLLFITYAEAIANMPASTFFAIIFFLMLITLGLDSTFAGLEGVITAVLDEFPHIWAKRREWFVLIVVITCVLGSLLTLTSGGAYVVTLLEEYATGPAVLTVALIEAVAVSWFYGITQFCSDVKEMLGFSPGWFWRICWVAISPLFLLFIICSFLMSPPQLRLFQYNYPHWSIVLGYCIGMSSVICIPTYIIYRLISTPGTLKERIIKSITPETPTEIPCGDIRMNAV
Description: Inhibition of ^3H-5-HT Uptake Into Rat Brain Synaptosomes.
Using this method, the ability of drugs to inhibit the accumulation of ^3H-5-HT into whole rat brain synaptosomes is determined in vitro.

[3] = biological target: T3, cloned 5-HT1A receptors stably expressed in transfected HeLa cells (HA7) (Homo sapiens, UniProt P08908); experiment: 5-HT1A antagonistic activity: antagonism of 5-HT induced inhibition of forskolin induced cAMP accumulation; type: cell-based; conditions: HeLa cells (HA7) expressing cloned 5-HT1A receptors
T3 construct: expressed in transfected cells; host or cells: HeLa cells (HA7)
T3 sequence (P08908 1-422): T1 sequence (P08908 1-422)
Description: The assay was performed as a modification of the method described by Pauwels, P. J. et al, Biochem. Pharmacol. 1993, 45, 375.

[4] = cloned human 5-HT1A receptors in HeLa cells (HA7) homogenate, 15 minutes at 37° C., pH 7.7
[5] = 3H-5-HT accumulation into whole rat brain synaptosomes, in vitro, read-out: Inhibition of serotonin reuptake IC50

Compound	melting point	IC50 [1, 4]	IC50 [2, 5]	IC50 [3]	other results
Fc1ccc2c(CCCN3CCN(c4cccc5c4OCCO5)CC3)noc2c1 (as salt: fumarate) [Compound 3b, 1-[1,4-Benzodioxan-5-yl]-4-[3-(6-fluorobenzo[1,2]isoxazol-3-yl)-1-propyl]piperazine]	187 to 189 °C				
Fc1ccc2occ(CCN3CC=C(c4cccc5ccoc45)CC3)c2c1 (as salt: oxalate) [Compound 3h, 4-[Benzofuran-7-yl]-1-[2-(5-fluorobenzofuran-3-yl)ethyl]-1,2,3,6-tetrahydropyridine]	201 to 211 °C				
C(=CC1CCc2ccccc21)CCN1CCN(c2cccc3c2OCCO3)CC1 (stereo not drawn) (as salt: oxalate) [Compound 1b, 1-[1,4-Benzodioxan-5-yl]-4-[1-(indan-1-yl)-1-buten-4-yl]piperazine]	154 to 157 °C				
Clc1ccc2occ(CCN3CC=C(c4cccc5c4OCC5)CC3)c2c1 (as salt: oxalate) [Compound 3g, 1-[2-(5-chlorobenzofuran-3-yl)ethyl]-4-[2,3-dihydrobenzofuran-7-yl]-1,2,3,6-tetrahydropyridine]	187 to 202 °C				
c1cc2c(c(N3CCN(CCc4coc5ccccc45)CC3)c1)OCCO2 [Compound 3f, 1-[1,4-Benzodioxan-5-yl]-4-[2-(benzofuran-3-yl)ethyl]piperazine]				290 nM	IC50 [1]: 8.3 nM; IC50 [2]: 12 nM
Fc1ccc2occ(CCN3CC=C(c4cccc5ccoc45)CC3)c2c1 [Compound 3h, 4-[Benzofuran-7-yl]-1-[2-(5-fluorobenzofuran-3-yl)ethyl]-1,2,3,6-tetrahydropyridine]					IC50 [1]: 11 nM; IC50 [2]: 43 nM
Clc1ccc2occ(CCN3CC=C(c4cccc5c4OCC5)CC3)c2c1 [Compound 3g, 1-[2-(5-chlorobenzofuran-3-yl)ethyl]-4-[2,3-dihydrobenzofuran-7-yl]-1,2,3,6-tetrahydropyridine]			160 nM		IC50 [1]: 24 nM
C1=CC(CCCCN2CCN(c3cccc4c3OCCO4)CC2)c2ccccc21 (stereo not drawn) [Compound 1a, 1-[1,4-Benzodioxan-5-yl]-4-[1-(inden-1-yl)-4-butyl]piperazine]		1.7 nM	61 nM	170 nM	
c1cc2c(c(N3CCN(CCc4coc5ccccc45)CC3)c1)OCCO2 (as salt: oxalate) [Compound 3f, 1-[1,4-Benzodioxan-5-yl]-4-[2-(benzofuran-3-yl)ethyl]piperazine]	206 to 208 °C				
c1ccc2c(c1)CCC2CCCCN1CCN(c2cccc3c2OCCO3)CC1 (stereo not drawn) (as salt: oxalate) [Compound 1c, 1-[1,4-Benzodioxan-5-yl]-4-[1-(indan-1-yl)-4-butyl]piperazine]	154 to 155 °C				
Fc1ccc2occ(CCN3CCN(c4cccc5ccoc45)CC3)c2c1 [Compound 3a, 1-[Benzofuran-7-yl]-4-[2-(5-fluorobenzofuran-3-yl)ethyl]piperazine]		29 nM	170 nM		
Clc1ccc2c(CCN3CCN(c4cccc5c4OCCO5)CC3)n[nH]c2c1 (as salt: oxalate) [Compound 2b, 1-[1,4-Benzodioxan-5-yl]-4-[2-(6-chloroindazol-3-yl)ethyl]piperazine]	111 to 113 °C				
Clc1ccc2c(CCN3CCN(c4cccc5c4OCCO5)CC3)n[nH]c2c1 [Compound 2b, 1-[1,4-Benzodioxan-5-yl]-4-[2-(6-chloroindazol-3-yl)ethyl]piperazine]		9.3 nM	160 nM		
C(=CC1CCc2ccccc21)CCN1CCN(c2cccc3c2OCCO3)CC1 (stereo not drawn) [Compound 1b, 1-[1,4-Benzodioxan-5-yl]-4-[1-(indan-1-yl)-1-buten-4-yl]piperazine]		6.1 nM			
c1ccc2c(c1)CCC2CCCCN1CCN(c2cccc3c2OCCO3)CC1 (stereo not drawn) [Compound 1c, 1-[1,4-Benzodioxan-5-yl]-4-[1-(indan-1-yl)-4-butyl]piperazine]		2.5 nM	130 nM		

More lines, main results first:

melting point	IC50 [1, 4]	IC50 [2, 5]	IC50 [3]	Compound	other results
174 to 176 °C				Cc1ccc2c(CCN3CCN(c4cccc5c4OCCO5)CC3)coc2c1 (as salt: oxalate) [Compound 3e, 1-[1,4-Benzodioxan-5-yl]-4-[2-(6-methylbenzofuran-3-yl)ethyl]piperazine]	
206 to 208 °C				Clc1ccc2occ(CCN3CCN(c4cccc5c4OCCO5)CC3)c2c1 (as salt: oxalate) [Compound 3d, 1-[1,4-Benzodioxan-5-yl]-4-[2-(5-chlorobenzofuran-3-yl)ethyl]piperazine]	
	14 nM	0.69 nM	100 nM	Fc1ccc2occ(CCN3CCN(c4cccc5c4OCCO5)CC3)c2c1 [Compound 2a, 1-[1,4-Benzodioxan-5-yl]-4-[2-(5-fluorobenzofuran-3-yl)ethyl]piperazine]	
	2.9 nM	15 nM	390 nM	Cc1cccc2occ(CCCN3CCN(c4cccc5c4OCCO5)CC3)c12 [Compound 5a, 1-[1,4-Benzodioxan-5-yl]-4-[3-(4-methylbenzofuran-3-yl)-1-propyl]piperazine]	
	19 nM	11 nM	2300 nM	Cc1cccc2occ(CCN3CCN(c4cccc5c4OCCO5)CC3)c12 [Compound 3c, 1-[1,4-Benzodioxan-5-yl]-4-[2-(4-methylbenzofuran-3-yl)ethyl]piperazine]	
		32 nM	260 nM	Cc1ccc(Cl)c2occ(CCCN3CCN(c4cccc5c4OCCO5)CC3)c12 [Compound 4a, 1-[1,4-Benzodioxan-5-yl]-4-[3-(7-chloro-4-methylbenzofuran-3-yl)-1-propyl]piperazine]	
	2.1 nM	1.5 nM	1500 nM	Clc1cccc2c(CCN3CCN(c4cccc5c4OCCO5)CC3)coc12 [Compound 3i, 1-[1,4-Benzodioxan-5-yl]-4-[2-(7-chlorobenzofuran-3-yl)ethyl]piperazine]	
	18 nM	34 nM	550 nM	Clc1ccc2occ(CCN3CCN(c4cccc5c4OCCO5)CC3)c2c1 [Compound 3d, 1-[1,4-Benzodioxan-5-yl]-4-[2-(5-chlorobenzofuran-3-yl)ethyl]piperazine]	
204 to 206 °C				Cc1cccc2occ(CCN3CCN(c4cccc5c4OCCO5)CC3)c12 (as salt: oxalate) [Compound 3c, 1-[1,4-Benzodioxan-5-yl]-4-[2-(4-methylbenzofuran-3-yl)ethyl]piperazine]	
	8.8 nM	58 nM	1400 nM	Cc1ccc2c(CCN3CCN(c4cccc5c4OCCO5)CC3)coc2c1 [Compound 3e, 1-[1,4-Benzodioxan-5-yl]-4-[2-(6-methylbenzofuran-3-yl)ethyl]piperazine]	
	7.5 nM	240 nM	74 nM	Fc1ccc2c(CCCN3CCN(c4cccc5c4OCCO5)CC3)noc2c1 [Compound 3b, 1-[1,4-Benzodioxan-5-yl]-4-[3-(6-fluorobenzo[1,2]isoxazol-3-yl)-1-propyl]piperazine]	
190 to 192 °C				Clc1cccc2c(CCN3CCN(c4cccc5c4OCCO5)CC3)coc12 (as salt: oxalate) [Compound 3i, 1-[1,4-Benzodioxan-5-yl]-4-[2-(7-chlorobenzofuran-3-yl)ethyl]piperazine]	
